Patent publication US6177438A, “Morphinan derivatives and pharmaceutical use thereof” (priority 1993, dated 2001)
Where a name gives a salt, the structure may show the parent alone. Read-outs that look alike come from different tables or passages of the source.

Tests used:
[1] = test system: extracted mouse vas deferens preparation; test: Opioid activity test using an extracted mouse vas deferens preparation (suppression of electrically induced contractions); design: species or system male ddy mouse; settings: electrical stimulus 0.1 Hz, 37° C.
Procedure: (§1) A male ddy mouse was used in this test. The vas deferens extracted from the animal was suspended in a Magnus tube filled with Krebes-Henseleit solution (NaCl 118 mM; KCl 4.7 mM; CaCl2 2.5 mM; KH2 PO4 1.1 mM; NaHCO3 25 mM; Glucose 11 mM) warmed to 37° C. and ventilated with 5% carbon dioxide and 95% oxygen. Electrical stimulus was performed at 0.1 Hz for 5.0 ms by means of ring-shaped platinum electrodes located above and below. Tissue contractions were recorded on a polygraph using an isometric transducer.
(§2) After adequately washing with nutrient solution and the contraction reaction stabilized, the μ agonist, naloxone, the δ agonist, NTI, or the κ agonist, norBNI, was added after which the test compound was again cumulatively added after roughly 20 minutes. The Ke value was calculated using the following calculation formula from the difference in the efficacies of both agonists.

[2] = target: T1, μ receptor (Mus musculus, UniProt P42866); test: Opioid activity test using an extracted mouse vas deferens preparation, Ke with naloxone; design: species or system male ddy mouse; settings: naloxone added
T1 construct: naloxone as mu antagonist (printed 'agonist')
Procedure: as §1, §2
(§3) Ke=[Conc. of added agonist]/(IC50 ratio-1)
(§4) IC50 ratio=IC50 in the presence of agonist/IC50 in the absence of agonist

[3] = target: T2, δ receptor (Mus musculus, UniProt P32300); design: species or system male ddy mouse
T2 construct: The vas deferens extracted from the animal was suspended in a Magnus tube; from tissue; host or cells: mouse (male ddy) vas deferens

[4] = target: T3, κ receptor (Mus musculus, UniProt P33534); test: Opioid activity test using an extracted mouse vas deferens preparation, Ke with norBNI; design: species or system male ddy mouse; settings: for Ke, norBNI: κ, norBNI added; for receptor selectivity of agonist (κ): in words
T3 construct: from tissue; host or cells: mouse (male ddy) vas deferens
Procedure: as §1, §2, §3, §4

[5] = test system: acetic acid-induced writhing in ddy mice; test: animal or person; format: in vivo, 5 week old ddy mice; settings: for ED50: s.c. 15 minutes before acetic acid
Procedure: 5 week old ddy mice were used in this test. After intraperitoneal administration of 0.1 ml of 0.6% aqueous acetic acid per 10 g of body weight, the number of writhing reactions that occurred in 10 minutes starting 10 minutes after administration was evaluated for the indicator. The test drug was administered subcutaneously into the backs of the animals 15 minutes before administration of acetic acid.

[6] = Diuretic action (urine output for 5 hours after physiological saline loading in rats); format: in vivo, male Wistar rats; settings: for ED (200% urine output) / ED (500% urine output): Rattus norvegicus, sc, 5 hours after saline 20 ml/kg p.o.; for ED (200% urine output): dose giving urine output of 200 (non-dosed group = 100); for ED (500% urine output): dose giving urine output of 500 (non-dosed group = 100)
Procedure: 7-8 week old male Wistar rats were used in this test after prohibiting from drinking water for 1 hour before the start of testing. After discharging any urine accumulated in the bladder by gently stimulating the lower abdomens of the animals, the drug was administered subcutaneously. After 30 minutes, the animals were then forcibly given 20 ml/kg of physiological saline orally. The animals were placed in metabolic cages immediately after administration of the drug (2 animals/cage) and urine output for 5 hours after loading with physiological saline was measured. Drug efficacy was expressed in the form of those doses resulting in urine outputs of 200 and 500, respectively, when the urine output of a non-dosed group was taken to be 100. Those doses were expressed as the ED200 and ED500 values, respectively.

[7] = mouse vas deferens, δ, NTI added
[8] = Mus musculus, sc, read-out: ED50

T3 sequence (P33534 whole entry): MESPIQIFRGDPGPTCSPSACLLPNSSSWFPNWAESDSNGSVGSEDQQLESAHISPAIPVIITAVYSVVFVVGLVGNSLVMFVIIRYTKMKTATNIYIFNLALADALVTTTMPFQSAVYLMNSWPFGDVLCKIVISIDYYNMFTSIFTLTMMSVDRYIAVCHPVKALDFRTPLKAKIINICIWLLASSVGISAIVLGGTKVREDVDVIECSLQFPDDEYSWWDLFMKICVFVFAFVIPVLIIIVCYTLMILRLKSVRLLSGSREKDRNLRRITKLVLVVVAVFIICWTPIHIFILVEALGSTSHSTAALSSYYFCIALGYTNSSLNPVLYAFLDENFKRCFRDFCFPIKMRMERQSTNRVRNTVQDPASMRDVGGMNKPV
T1 sequence (P42866 whole entry): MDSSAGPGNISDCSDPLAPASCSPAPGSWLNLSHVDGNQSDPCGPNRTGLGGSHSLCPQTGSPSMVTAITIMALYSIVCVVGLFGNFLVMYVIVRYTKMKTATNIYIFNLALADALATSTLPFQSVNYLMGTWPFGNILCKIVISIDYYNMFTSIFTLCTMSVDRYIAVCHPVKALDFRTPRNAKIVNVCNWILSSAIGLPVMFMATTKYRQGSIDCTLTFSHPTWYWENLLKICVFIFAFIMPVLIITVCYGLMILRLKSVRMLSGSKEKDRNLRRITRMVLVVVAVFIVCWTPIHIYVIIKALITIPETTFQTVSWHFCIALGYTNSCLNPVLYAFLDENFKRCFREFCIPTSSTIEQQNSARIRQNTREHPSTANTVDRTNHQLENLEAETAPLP
T2 sequence (P32300 whole entry): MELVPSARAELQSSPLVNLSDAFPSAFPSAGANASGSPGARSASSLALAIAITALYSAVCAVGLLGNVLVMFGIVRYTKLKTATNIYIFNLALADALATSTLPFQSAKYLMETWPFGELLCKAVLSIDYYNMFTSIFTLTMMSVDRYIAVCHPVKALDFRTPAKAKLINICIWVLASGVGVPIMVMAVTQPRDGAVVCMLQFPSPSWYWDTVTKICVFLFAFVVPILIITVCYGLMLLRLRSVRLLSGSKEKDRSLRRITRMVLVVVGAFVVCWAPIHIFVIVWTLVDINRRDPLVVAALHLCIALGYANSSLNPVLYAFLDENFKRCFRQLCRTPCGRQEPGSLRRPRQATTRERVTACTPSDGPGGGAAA

SMILES	IC50 [1]	Ke, Naloxone [2]	receptor selectivity of agonist (δ) ([3]; mouse vas deferens, in words)	Ke, NTI [3, 7]	Ke, norBNI [4]	receptor selectivity of agonist (κ) [4]	ED50 [5, 8]	ED (200% urine output) [6]	ED (500% urine output) [6]	Ke, NTI [3]	analgesic activity ([5]; s.c., in words)	ED50 [5]	Diuretic action (in words) ([6]; s.c., from ED200 values)
CN(C(=O)C#Cc1ccc(C(F)(F)F)cc1)[C@H]1CC[C@@]2(O)[C@H]3Cc4ccc(O)c5c4[C@@]2(CCN3CC2CC2)[C@H]1O5 [Compound 126, 17-Cyclopropylmethyl-3,14β-dihydroxy-4,5α-epoxy-6α-[N-methyl-3-(4-trifluoromethylphenyl)propiolamido]morphinan.cndot.0.5 tartrate]	0.969 nM	40.2 nM	selective agonists for δ receptors	0.0065 nM	1.20 nM								
Cc1cccc(C#CC(=O)N(C)[C@@H]2CC[C@@]3(O)[C@H]4Cc5ccc(O)c6c5[C@@]3(CCN4CC3CC3)[C@H]2O6)c1.Cl [Compound 172, 17-cyclopropylmethyl-3,14β-dihydroxy-4,5α-epoxy-6β-[N-methyl-3-(3-methylphenyl)propiolamido]morphinan hydrochloride]		16.16 nM		17.57 nM	0.163 nM	selective agonists for κ receptors	0.0079 mg/kg	0.00323 mg/kg	3.03 mg/kg				
CN(C(=O)/C=C/c1ccc(C(F)(F)F)cc1)[C@@H]1CC[C@@]2(O)[C@H]3Cc4ccc(O)c5c4[C@@]2(CCN3CC2CC2)[C@H]1O5 [Compound 73, 17-cyclopropylmethyl-3,14β-dihydroxy-4,5α-epoxy-6β-(N-methyl-4-trifluoromethylcinnamamido)morphinan.cndot.tartrate]	0.072 nM	524 nM		78 nM	0.272 nM	selective agonists for κ receptors	0.023 mg/kg						
CN(C(=O)/C=C/c1cccc(Cl)c1)[C@@H]1CC[C@@]2(O)[C@H]3Cc4ccc(O)c5c4[C@@]2(CCN3CC2CC2)[C@H]1O5 [Compound 154, 17-cyclopropylmethyl-3,14β-dihydroxy-4,5α-epoxy-6β-(N-methyl-3-chlorocinnamamido)morphinan hydrochloride]		43.1 nM			0.133 nM	selective agonists for κ receptors	0.001 mg/kg	0.00214 mg/kg	0.27 mg/kg	31.5 nM	particularly strong analgesic activity		
CCCCCC(=O)N(C)[C@@H]1CC[C@@]2(O)[C@H]3Cc4ccc(O)c5c4[C@@]2(CCN3CC2CC2)[C@H]1O5 [Compound 62, 17-cyclopropylmethyl-3,14β-dihydroxy-4,5α-epoxy-6β-(N-methylhexanamido)morphinan.cndot.tartrate]	14.7 nM			90.2 nM	0.203 nM	selective agonists for κ receptors	0.077 mg/kg	0.101 mg/kg	7.04 mg/kg				
CN(C(=O)/C=C/c1ccsc1)[C@H]1CC[C@@]2(O)[C@H]3Cc4ccc(O)c5c4[C@@]2(CCN3CC2CC2)[C@H]1O5 [Compound 91, 17-cyclopropylmethyl-3,14β-dihydroxy-4,5α-epoxy-6α-[N-methyl-trans-3-(3-thienyl)acrylamido]morphinan.cndot.tartrate]	0.378 nM			450 nM	0.699 nM	selective agonists for κ receptors	0.019 mg/kg	0.0094 mg/kg	0.96 mg/kg				
CN(C(=O)/C=C/c1ccc(Cl)cc1)[C@@H]1CC[C@@]2(O)[C@H]3Cc4ccc(O)c5c4[C@@]2(CCN3CC2CC2)[C@H]1O5 [Compound 152, 17-cyclopropylmethyl-3,14β-dihydroxy-4,5α-epoxy-6β-(N-methyl-4-chlorocinnamamido)morphinan hydrochloride]		17.5 nM			0.039 nM	selective agonists for κ receptors		0.00071 mg/kg	0.00953 mg/kg	35.1 nM		0.0038 mg/kg	extremely strong diuretic action
CC(C)CN(C(=O)/C=C/c1cccc(C(F)(F)F)c1)[C@@H]1CC[C@@]2(O)[C@H]3Cc4ccc(O)c5c4[C@@]2(CCN3CC2CC2)[C@H]1O5 [Compound 166, 17-cyclopropylmethyl-3,14β-dihydroxy-4,5α-epoxy-6β-(N-isobutyl-3-trifluoromethylcinnamamido)morphinan 0.5 tartrate]	0.028 nM	36.9 nM		20.5 nM	4.78 nM								
CC(=O)Oc1ccc2c3c1O[C@H]1[C@H](N(C)C(=O)/C=C/c4ccccc4)CC[C@@]4(O)[C@@H](C2)N(CC2CC2)CC[C@]314 [Compound 140, 17-Cyclopropylmethyl-3-acetoxy-14β-hydroxy-4,5α-epoxy-6β-(N-methylcinnamamido)morphinan.cndot.tartrate]	0.413 nM	320 nM		261 nM	1.06 nM	selective agonists for κ receptors						0.0034 mg/kg	
CN(C(=O)CC(=O)c1ccccc1)[C@@H]1CC[C@@]2(O)[C@H]3Cc4ccc(O)c5c4[C@@]2(CCN3CC2CC2)[C@H]1O5 [Compound 103, 17-cyclopropylmethyl-3,14β-dihydroxy-4,5α-epoxy-6β-(N-methylbenzoylacetamido)morphinan.cndot.tartrate]	11 nM				0.657 nM	selective agonists for κ receptors	0.069 mg/kg	0.0827 mg/kg	5.65 mg/kg				
C=CCN1CC[C@]23c4c5ccc(O)c4O[C@H]2[C@@H](N(C)C(=O)Cc2ccc(Cl)c(Cl)c2)CC[C@@]3(O)[C@H]1C5 [Compound 122, 17-allyl-3,14β-dihydroxy-4,5α-epoxy-6α-(N-methyl-3,4-dichlorophenylacetamido)morphinan.cndot.hydrochloride]	3.01 nM	59.5 nM		42.7 nM	0.358 nM	selective agonists for κ receptors	0.34 mg/kg						
CN(C(=O)/C=C/c1cccc(F)c1)[C@@H]1CC[C@@]2(O)[C@H]3Cc4ccc(O)c5c4[C@@]2(CCN3CC2CC2)[C@H]1O5 [Compound 102, 17-cyclopropylmethyl-3,14β-dihydroxy-4,5α-epoxy-6β-(N-methyl-3-fluorocinnamamido)morphinan.cndot.tartrate]	1.6 nM			276 nM	2.37 nM	selective agonists for κ receptors	0.0019 mg/kg	0.0014 mg/kg	0.0154 mg/kg				
CN(C(=O)/C=C/c1cccc(Br)c1)[C@@H]1CC[C@@]2(O)[C@H]3Cc4ccc(O)c5c4[C@@]2(CCN3CC2CC2)[C@H]1O5 [Compound 151, 17-cyclopropylmethyl-3,14β-dihydroxy-4,5α-epoxy-6β-(N-methyl-3-bromocinnamamido)morphinan hydrobromide]		0.94 nM			0.028 nM	selective agonists for κ receptors	0.0041 mg/kg	0.00445 mg/kg	1.56 mg/kg	1.65 nM			
CN(C(=O)CC(=O)c1ccccc1)[C@H]1CC[C@@]2(O)[C@H]3Cc4ccc(O)c5c4[C@@]2(CCN3CC2CC2)[C@H]1O5 [Compound 98, 17-cyclopropylmethyl-3,14β-dihydroxy-4,5α-epoxy-6α-(N-methylbenzoylacetamido)morphinan.cndot.tartrate]	1.3 nM				1.35 nM	selective agonists for κ receptors		0.0065 mg/kg	0.206 mg/kg			0.0068 mg/kg	
